Reference: ChEMBL document CHEMBL1201862, “PubChem BioAssay data set” (2004)
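Grown in 96-well plates, cells were treated for 48 hours with each compound at five concentrations. Insufficient inhibition: endpoint recorded as highest concentration tested. GI50: concentration for 50% inhibition of growth.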 Calls of active or inactive are those of the source. Rule as the data show it: active = GI50 up to about 1.1 µM and inactive = higher.

What was measured:
Test in all cases: DTP human tumour cell line panel, 48 h
[1] = test system: HT-29
[2] = test system: SF-268
[3] = test system: UO-31
[4] = test system: LOX IMVI
[5] = test system: SF-539
[6] = test system: CAKI-1
[7] = test system: RPMI-8226
[8] = test system: SN12C
[9] = test system: EKVX
[10] = test system: UACC-257
[11] = test system: Malme-3M
[12] = test system: A498
[13] = test system: HOP-62
[14] = test system: SK-MEL-28
[15] = test system: HCC 2998
[16] = test system: SK-MEL-5
[17] = test system: DU-145
[18] = test system: PC-3

Measured: GI50

COC(=O)c1cc(C(=O)OC)c(CC(=O)C(=O)NC2C3CC4CC(C3)CC2C4)nc1CC(=O)C(=O)NC1C2CC3CC(C2)CC1C3 (stereo unspecified)
inactive: [1] > 100 µM | [2] > 100 µM | [3] > 100 µM | [4] > 100 µM | [5] > 100 µM | [6] > 100 µM | [7] > 100 µM | [8] > 100 µM | [9] > 100 µM | [10] > 100 µM | [11] > 100 µM | [12] > 100 µM | [13] > 100 µM | [14] > 100 µM | [15] > 100 µM | [16] > 100 µM

O=C1c2ccccc2N2OC3(N4CCOCC4)CCCC3C12c1ccccc1 (stereo unspecified)
inactive: [1] > 100 µM | [2] > 100 µM | [3] > 100 µM | [5] > 100 µM | [7] > 100 µM | [8] > 100 µM | [9] > 100 µM | [10] > 100 µM | [11] > 100 µM | [12] > 100 µM | [13] > 100 µM | [14] > 100 µM | [15] > 100 µM | [16] > 100 µM

Clc1cccc(C2SCc3nc4ccccc4n32)c1 (stereo unspecified)
inactive: [1] 23.7 µM | [2] 28.8 µM | [4] 15.2 µM | [5] 21.1 µM | [6] 27 µM | [7] 14.2 µM | [8] 13.8 µM | [9] 17.5 µM | [11] 22 µM | [13] 20 µM | [14] 19.1 µM

COC1(OC)CC2CCCCC2=C(C)N1S(=O)(=O)c1ccccc1 (stereo unspecified)
inactive: [1] > 100 µM | [2] > 100 µM | [3] > 100 µM | [4] > 100 µM | [5] > 100 µM | [6] > 100 µM | [7] > 100 µM | [8] > 100 µM | [9] > 100 µM | [10] > 100 µM | [11] > 100 µM | [13] > 100 µM | [14] > 100 µM | [16] > 100 µM

[N-]=[N+]=Nc1nnc(CCCCc2nnc(N=[N+]=[N-])o2)o1
inactive: [1] > 100 µM | [2] > 100 µM | [3] > 100 µM | [4] > 100 µM | [5] > 100 µM | [8] > 100 µM | [9] > 100 µM | [10] > 100 µM | [11] > 100 µM | [12] > 100 µM | [13] > 100 µM | [14] > 100 µM | [15] > 100 µM | [16] > 100 µM

COC(=O)/C=C(C)/C=C/C1OC(C)OCC1O (stereo unspecified)
inactive: [1] > 100 µM | [2] > 100 µM | [3] > 100 µM | [4] > 100 µM | [5] > 100 µM | [6] > 100 µM | [7] > 100 µM | [8] > 100 µM | [9] > 100 µM | [10] > 100 µM | [11] > 100 µM | [12] > 100 µM | [13] > 100 µM | [15] > 100 µM | [16] > 100 µM

COC(=O)C(=O)C(C(=O)C(=O)Nc1cc([N+](=O)[O-])ccc1[N+](=O)[O-])c1nc2ccc(C(=O)c3ccccc3)cc2nc1O (stereo unspecified)
inactive: [1] 34 µM | [2] 47.6 µM | [3] 17.4 µM | [4] 19.9 µM | [5] 35.2 µM | [6] 19.3 µM | [7] 20.1 µM | [8] 44.2 µM | [9] 39.3 µM | [10] 34.3 µM | [11] 61.4 µM | [12] 20.9 µM | [13] 44.5 µM | [15] > 100 µM | [16] 18.3 µM

Nc1nc2c(ncn2Cc2ccccc2CCO)c(=O)[nH]1
inactive: [1] > 100 µM | [2] > 100 µM | [3] > 100 µM | [4] > 100 µM | [6] > 100 µM | [7] > 100 µM | [8] > 100 µM | [9] > 100 µM | [11] > 100 µM | [12] > 100 µM | [13] > 100 µM | [14] > 100 µM | [15] > 100 µM | [16] > 100 µM

N#Cc1cc([N+](=O)[O-])ccc1NC(=O)C(F)(F)F
inactive: [1] > 45.5 µM | [2] > 100 µM | [3] > 100 µM | [4] > 34.7 µM | [5] > 100 µM | [6] > 100 µM | [7] > 45.8 µM | [8] > 100 µM | [9] > 100 µM | [10] > 100 µM | [11] > 100 µM | [12] > 100 µM | [13] > 100 µM | [14] > 100 µM | [15] > 100 µM | [16] > 100 µM

CCN(CC)c1ccc(/N=N/c2ccc(-c3nc4cccn(C)c-4n3)cc2)cc1
inactive: [1] 1.98 µM | [2] 13.2 µM | [3] 17.1 µM | [4] 2.52 µM | [5] 12.7 µM | [6] 16.6 µM | [7] 2.36 µM | [8] 6.04 µM | [9] 18.5 µM | [10] 9.14 µM | [11] 12.1 µM | [12] 14.9 µM | [13] 10.4 µM | [16] 4.8 µM

Cc1ccc(SC(C)/C=C/NNC2=NN=C(c3ccccc3)C(c3ccccc3)N2)cc1 (stereo unspecified)
inactive: [1] 13.3 µM | [2] 28 µM | [3] 12.4 µM | [4] 25.7 µM | [5] 34.2 µM | [6] 13.5 µM | [7] 27.9 µM | [8] 36.4 µM | [9] 44.8 µM | [10] 31.5 µM | [11] 49.8 µM | [12] 40.4 µM | [14] 76.4 µM | [15] 28 µM | [16] 14.6 µM

COC(=O)/C(=N/NC(C)(C)C)C(C(=O)C=C(C)C)C(=O)C(=O)Nc1ccc(Cl)cc1C (stereo unspecified)
inactive: [1] > 100 µM | [2] > 100 µM | [3] > 100 µM | [5] > 100 µM | [6] > 100 µM | [7] > 100 µM | [8] > 100 µM | [9] > 100 µM | [10] > 100 µM | [11] > 100 µM | [12] > 100 µM | [13] > 100 µM | [14] > 100 µM | [15] > 100 µM | [16] > 100 µM

CN(CCO)CCCC1COc2ccccc2O1 (stereo unspecified)
inactive: [1] > 100 µM | [2] 20.7 µM | [3] > 100 µM | [5] > 100 µM | [6] > 100 µM | [8] > 100 µM | [9] 73.3 µM | [10] > 100 µM | [11] > 100 µM | [17] > 100 µM | [13] > 100 µM | [14] > 100 µM | [18] > 100 µM | [15] > 100 µM | [16] > 100 µM

COC(=O)C(=O)C(C(C)=O)C(=O)NCc1ccc(OC)c(OC)c1 (stereo unspecified)
inactive: [1] > 100 µM | [2] > 100 µM | [3] > 100 µM | [4] > 100 µM | [5] > 100 µM | [6] > 100 µM | [8] > 100 µM | [9] > 100 µM | [10] > 100 µM | [11] > 100 µM | [12] > 100 µM | [13] > 100 µM | [14] > 100 µM | [15] > 100 µM | [16] > 100 µM

CC1(C)OC2C(=O)OC(COCc3ccccc3)C2O1 (stereo unspecified)
inactive: [1] > 100 µM | [2] > 100 µM | [3] > 100 µM | [4] > 100 µM | [5] > 100 µM | [6] > 100 µM | [7] > 100 µM | [8] > 100 µM | [9] > 100 µM | [10] > 100 µM | [11] > 100 µM | [12] > 100 µM | [13] > 100 µM | [14] > 100 µM | [15] > 100 µM | [16] > 100 µM

CN/N=C(\C(=O)Nc1ccc(C(F)(F)F)cc1[N+](=O)[O-])C(c1cnc2ccc([N+](=O)[O-])cc2n1)[N+](=O)[O-] (stereo unspecified)
inactive: [1] 67.1 µM | [2] 73.3 µM | [3] 16 µM | [4] 12.1 µM | [5] 25.6 µM | [6] 14.3 µM | [7] 38.2 µM | [8] > 100 µM | [9] 6.71 µM | [10] 44.5 µM | [11] > 100 µM | [12] 16.7 µM | [13] 33 µM | [14] > 100 µM | [15] 49.5 µM | [16] 28.1 µM

COc1ccc(C2Oc3c(c(O)cc4c3[C@H](c3ccc(O)cc3O)[C@H](O)C(c3ccc(O)c(O)c3)O4)C[C@@H]2O)cc1O (stereo partly specified)
inactive: [1] > 100 µM | [2] > 100 µM | [3] > 100 µM | [4] > 100 µM | [5] > 100 µM | [6] > 100 µM | [7] > 100 µM | [8] > 100 µM | [9] > 100 µM | [10] > 100 µM | [11] > 100 µM | [12] > 100 µM | [13] > 100 µM | [15] > 100 µM | [16] > 100 µM

COc1c(Br)cc(/C=C(\C#N)c2cccnc2)cc1Br
inactive: [1] 26.4 µM | [2] 67.6 µM | [3] > 100 µM | [5] 43.7 µM | [6] > 100 µM | [7] > 100 µM | [8] > 100 µM | [9] 4.31 µM | [10] > 100 µM | [11] > 100 µM | [17] > 100 µM | [13] 54.8 µM | [14] 50.5 µM | [18] 45.4 µM | [15] 48 µM | [16] 43.7 µM
